For test [1], the system named is spleen cells. The test can be described thus: MHC-restricted OVA-specific CD8-positive T lymphocytes in spleen cells of immunized mice (tetramer staining). It counts as in vivo, mouse. To be noted: spleen cells of mice of Test Example 1, H-2Kb OVA Tetramer-SINFEKL; vs negative control group; FIG. 4. As to the method: (§1) For the first immunization, an equal volume mixture (100 μL/mouse) of ovalbumin (OVA) (1 mg/mL) and a compound of the above Examples (0.1 mg/mL) was administered intramuscularly to gastrocnemius muscle of C57BL/6 mouse. Two weeks later, an equal amount of the same mixture was administered intramuscularly to the gastrocnemius muscle for booster immunization. One week after the booster immunization, cardiac blood was collected under isoflurane inhalation anesthesia, and plasma was collected by centrifugation. OVA-specific IgG value in plasma was measured by ELISA using mouse anti-ovalbumin IgG ELISA kit (Alpha Diagnostic) (See FIG. 1).
The spleen cells were also stained with eFluor 450-labeled anti-mouse CD3e antibody, Alexa Fluor® 647-labeled anti-mouse CD8 antibody, PE-labeled H-2Kb OVA Tetramer-SINFEKL (MBL) and Flexable Viability Dye eFluor 520 (eBioscience). Data acquisition and analysis were performed using FACS Cant II (BD Biosciences) and FLOWJO software (TreeStar).

Test [2] relates to spleen cells. As to the kind of experiment: CD8-positive effector memory T lymphocytes in spleen cells of immunized mice (flow cytometry). It counts as in vivo, mouse. The note with it: spleen cells of mice of Test Example 1, CD44/CD62L staining; vs negative control group; FIG. 5. As to the method: as §1
The spleen cells were further incubated with antibody cocktail eFluor450-labeled anti-mouse CD3e antibody, Alexa Fluor647-labeled anti-mouse CD8 antibody, PE-Cy7-labeled anti-mouse CD44 antibody, PerCP-Cy5.5-labeled anti-mouse CD62L antibody and Fixable Viability Dye520 (eBioscience). Data acquisition and analysis were performed using FACS Cant II (BD Biosciences) and FLOWJO software (TreeStar).

In test [3] the test system is C57BL/6 mouse. As to the kind of experiment: OVA-specific IgG1 and IgG2c in immunized mouse plasma (ELISA). To be noted: intramuscular OVA + compound, prime and booster, vs negative control group, FIG. 2. It counts as in vivo. The protocol: as §1
Also, the OVA-specific IgG1 and IgG2c values in the immunized mouse plasma were determined by ELISA method. Specifically, OVA solution (SIGMA) was added to a 96-well plate, followed by blocking with 1% skim milk (Wako Pure Chemical Industries, Ltd.). A plasma sample, which was diluted with phosphate buffer, and then a secondary antibody (goat anti-mouse IgG1 (Jackson) or IgG2c (Southern Bio)) were added. SureBlue™ TMB microwell peroxidase substrate (KPL) was added, and the product of the enzyme reaction was measured by microplate reader (See FIG. 2).

Test [4] has as its system C57BL/6 mouse. As to the kind of experiment: OVA-specific IgG in plasma of mice immunized with OVA plus compound (ELISA). It counts as in vivo. To be noted: intramuscular, equal volume mixture (100 μL/mouse) of OVA 1 mg/mL and compound 0.1 mg/mL, booster two weeks later, plasma one week after booster, vs negative control group, FIG. 1. The protocol: as §1
For orientation: ELISA stands for enzyme-linked immunosorbent assay.

The subject of test [5] is spleen cells. As to the kind of experiment: OVA-specific multifunctional CD4-positive T lymphocytes in spleen cells of immunized mice (flow cytometry). The test is classed as in vivo, mouse. To be noted: spleen cells of mice of Test Example 1, cultured overnight with OVA and Brefeldin A; IFN-γ, IL-2, TNF-α staining; vs negative control group; FIG. 3. The protocol:
as §1
The spleen cells were prepared from the mouse of Test Example 1. The cells were added with OVA and Brefeldin A (eBioscience) and cultured overnight. The cultured cells were harvested, stained with APC-labeled anti-mouse CD3e antibody, FITC-labeled anti-mouse CD4 antibody and Fixable Viability Dye Fluor® 450 (eBioscience), and fixed in Fixation/Permeabilization buffer (eBioscience). After treatment in Permeabilization buffer (eBioscience), the cells were stained with antibody cocktail PerCP-Cy5.5-labeled anti-IFN-γ antibody, PE-Cy7-labeled anti-IL-2 antibody, and PE-labeled TNF-α (eBioscience). Data acquisition and analysis were performed using FACS Cant II (BD Biosciences) and FLOWJO software (TreeStar).
In general terms: A flow cytometer gives signals particle by particle.

Regarding `CCC[C@@H](CO)Nc1nc(N)nc(C)c1Cc1ccc(C(=O)NCCNC(=O)CC/C(C)=C/CC/C(C)=C/CC/C(C)=C/CC/C=C(\C)CC/C=C(\C)CCC=C(C)C)cc1OC` [Example 4, 4-[(2-amino-4-{[(25)-1-hydroxypentan-2-yl]amino}-6-methylpyrimidin-5-yl)methyl]-N-(2-{[(4E,8E,12E,16E,20E)-4,8,12,17,21,25-hexamethylhexacosa-4,8,12,16,20,24-hexaenoyl]amino}ethyl)-3-methoxybenzamide], in the test on spleen cells [1], the “proportion of MHC-restricted OVA-specific CD8-positive T lymphocytes” value is given as “significantly increased”. Further, the “proportion of CD8-positive effector memory T lymphocytes” value in the test on spleen cells [2] is given as “significantly increased”. For the same compound, the “ratio of OVA-specific IgG2c to IgG1 in plasma” value in the test with C57BL/6 mouse [3] was “significantly increased”. Also, in the test on C57BL/6 mouse [4], the “OVA-specific IgG production in plasma” value is listed as “induced significant OVA-specific IgG production”. Moreover, the “proportion of OVA-specific multifunctional CD4-positive T lymphocytes” value in the test with spleen cells [5] is given as “significantly increased”.

With `CCC[C@@H](CCO)Nc1nc(N)nc(C)c1Cc1ccc(CN(C)CCNC(=O)CC/C(C)=C/CC/C(C)=C/CC/C(C)=C/CC/C=C(\C)CC/C=C(\C)CCC=C(C)C)cc1` [Example 1, (4E,8E,12E,16E,20E)-N-{2-[{4-[(2-amino-4-{[(3S)-1-hydroxyhexan-3-yl]amino}-6-methylpyrimidin-5-yl)methyl]benzyl}(methyl)amino]ethyl}-4,8,12,17,21,25-hexamethylhexacosa-4,8,12,16,20,24-hexaenamide], the “proportion of MHC-restricted OVA-specific CD8-positive T lymphocytes” value in the test on spleen cells [1] was “significantly increased”. The “proportion of CD8-positive effector memory T lymphocytes” value with spleen cells [2] is recorded as “significantly increased”. The “ratio of OVA-specific IgG2c to IgG1 in plasma” value in the test with C57BL/6 mouse [3] was “significantly increased”. For the same compound, the “OVA-specific IgG production in plasma” value in the test with C57BL/6 mouse [4] is recorded as “induced significant OVA-specific IgG production”. Moreover, the “proportion of OVA-specific multifunctional CD4-positive T lymphocytes” value in the test with spleen cells [5] is given as “significantly increased”.
